Measured values reported in PMC11303713, “Allosteric inhibition of CFTR gating by CFTRinh-172 binding in the pore” (Nature Communications, 2024).
“And” between values parts separate entries of the source, which are not always exact repeats. Identical values can stand only once. Like-named read-outs stand apart in the source and are kept apart here.

Tests used:
Test in all cases: Inside-out patch-clamp inhibition of CFTR current by Inh-172
Format in all cases: cell-based
W1145L-CFTR = target: T1, W1145L-CFTR (Homo sapiens, UniProt P13569, W1145L)
T1 construct: expressed in transfected cells; host or cells: CHO cells, pcDNA plasmid
T1 sequence (P13569 whole entry W1145L): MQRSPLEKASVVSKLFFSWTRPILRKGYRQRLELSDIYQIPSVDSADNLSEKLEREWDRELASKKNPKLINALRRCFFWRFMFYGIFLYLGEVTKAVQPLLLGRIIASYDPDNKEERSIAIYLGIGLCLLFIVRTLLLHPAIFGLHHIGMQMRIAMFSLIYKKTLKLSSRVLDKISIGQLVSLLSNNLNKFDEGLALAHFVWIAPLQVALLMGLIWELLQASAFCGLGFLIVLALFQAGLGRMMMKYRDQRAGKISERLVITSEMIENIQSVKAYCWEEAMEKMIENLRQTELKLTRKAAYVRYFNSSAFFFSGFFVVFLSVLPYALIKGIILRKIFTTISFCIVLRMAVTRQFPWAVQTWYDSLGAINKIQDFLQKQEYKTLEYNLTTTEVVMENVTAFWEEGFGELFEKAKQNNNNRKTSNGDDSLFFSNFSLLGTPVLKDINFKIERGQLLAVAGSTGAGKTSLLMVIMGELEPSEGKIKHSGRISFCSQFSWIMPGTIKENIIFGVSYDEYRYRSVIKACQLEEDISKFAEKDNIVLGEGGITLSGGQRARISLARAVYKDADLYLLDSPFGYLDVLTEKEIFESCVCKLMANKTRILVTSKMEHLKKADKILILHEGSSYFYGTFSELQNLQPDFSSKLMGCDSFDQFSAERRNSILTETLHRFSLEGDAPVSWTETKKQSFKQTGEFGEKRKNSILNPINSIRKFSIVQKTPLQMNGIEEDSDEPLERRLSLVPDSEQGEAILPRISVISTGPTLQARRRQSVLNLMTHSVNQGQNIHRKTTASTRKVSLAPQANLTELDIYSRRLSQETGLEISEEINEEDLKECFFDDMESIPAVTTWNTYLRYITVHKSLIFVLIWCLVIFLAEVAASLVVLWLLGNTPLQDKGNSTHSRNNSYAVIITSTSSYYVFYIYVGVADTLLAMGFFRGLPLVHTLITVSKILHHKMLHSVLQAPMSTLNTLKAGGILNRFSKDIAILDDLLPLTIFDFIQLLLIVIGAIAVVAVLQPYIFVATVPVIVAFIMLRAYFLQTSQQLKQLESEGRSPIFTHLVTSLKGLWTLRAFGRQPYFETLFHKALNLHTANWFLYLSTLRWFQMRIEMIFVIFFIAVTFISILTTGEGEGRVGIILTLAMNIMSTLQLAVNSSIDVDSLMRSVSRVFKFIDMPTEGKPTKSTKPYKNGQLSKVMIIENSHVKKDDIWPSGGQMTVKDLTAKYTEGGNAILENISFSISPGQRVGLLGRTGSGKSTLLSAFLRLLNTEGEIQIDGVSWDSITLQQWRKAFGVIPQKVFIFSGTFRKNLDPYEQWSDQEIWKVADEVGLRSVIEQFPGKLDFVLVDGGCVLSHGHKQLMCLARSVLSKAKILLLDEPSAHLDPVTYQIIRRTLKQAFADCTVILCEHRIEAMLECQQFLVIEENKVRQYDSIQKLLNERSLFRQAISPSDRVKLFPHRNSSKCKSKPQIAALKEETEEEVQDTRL
Experimental: (§1) CHO cells were grown at 37 °C in Dulbecco’s modified Eagle’s medium supplemented with 10% (vol/vol) fetal bovine serum (Sigma-Aldrich, St. Louis, MO). pcDNA plasmids carrying the desired CFTR construct were transfected to CHO cells using PolyFect transfection reagent (Qiagen, Hilden, Germany) together with green fluorescence protein (GFP) cDNA (pEGFP-C3, Takara Bio, Shiga, Japan) that helps identify expression of CFTR. Cells were first incubated with the transfection reagents at 37 °C for 6-12 hours on sterile glass chips in 35-mm tissue culture dishes before transferred to 27 °C for incubation for 2–7 days. Primers for mutations were ordered from Integrated DNA Technologies (Coralville, IA) and were summarized in Supplementary Data. All CFTR mutants were prepared with QuikChange XL kit (Agilent, Santa Clara, CA) and sequenced at the DNA Core facility at University of Missouri-Columbia.
(§2) Patch-clamp pipettes were made from borosilicate capillary glass using a two-stage vertical puller (PP-81; Narishige, Amityville, NY). The pipette tips were fire polished with a homemade microforge to yield a pipette resistance of 2–5 MΩ when filled with a pipette solution containing (in mM): 140 NMDG-Cl (N-methyl-D-glucamine-chloride), 5 CaCl2, 2 MgCl2, and 10 HEPES, pH 7.4. For recordings, transfected cells on glass chips were transferred into a continuously perfused chamber on the stage of an inverted microscope (IX51; Olympus, Tokyo, Japan) with the perfusing solution containing (in mM): 150 NMDG-Cl, 2 MgCl2, 10 EGTA, 8 Tris, and 10 HEPES, pH 7.4. The membrane patch was excised to an inside-out configuration with a seal resistance >40 GΩ. CFTR currents were recorded with an amplifier (EPC9; HEKA, Holliston, MA), filtered through an eight-pole Bessel filter (LPF-8; Warner Instruments, Hamden, CT) at 100 Hz and digitized to a computer at a sampling rate of 500 Hz with Pulse software (version 8.53; HEKA). The membrane potential was held at −30 mV. Solution exchange was achieved by a fast solution change system (SF-77B; Warner Instruments). Inh-172 was obtained from the CFTR Chemical Compound Program supported by the Cystic Fibrosis Foundation. All experiments were performed at room temperature.
(§3) The steady state mean currents were measured in the Igor Pro software (version 8.0; WaveMetrics). The mean baseline currents were subtracted from the steady state mean currents before the data were used to determine the degrees of inhibition. The degrees of inhibition by CFTR inhibitor 172 were calculated based on the equation:1 %inhibition=1−IInh−172/I0X100% where I0 and Iinh−172 represent uninhibited and inhibited currents, respectively. The IC50 and Hill coefficients were obtained by fitting percent inhibition as a function of [Inh-172] with the Hill equation:2 %inhibition=base+(max−base)/1+xhalf/x^rate where max and base represent the […] percent inhibition by Inh-172, x represents the concentration of Inh-172, and the rate is the Hill coefficient. The estimated IC50 (xhalf) and Hill coefficients are listed in Table 1 as mean ± standard deviation. Each patch-clamp recording was made from a separate cell.

[1] = target: T2, h-pTM8-h-CFTR (human CFTR, three TM8 amino acids replaced with pig's) (Homo sapiens, UniProt P13569, F931L/M929L/T925G); conditions: for inhibition at 1 µM: 1000 nM Inh-172; for inhibition at 5 µM: 5000 nM Inh-172; for inhibition at 10 µM: 10000 nM Inh-172
T2 construct: expressed in transfected cells; host or cells: CHO cells, pcDNA plasmid
T2 sequence (P13569 whole entry T925G/M929L/F931L): as the sequence (P13569 whole entry W1145L) above, with T925G, M929L, F931L, L1145W counted along it
Experimental: as §1, §2, §3

human WT-CFTR = target: T3, human WT-CFTR (Homo sapiens, UniProt P13569); conditions: for inhibition at 0.05 µM: 50 nM Inh-172; for inhibition at 0.1 µM: 100 nM Inh-172; for inhibition at 1 µM: 1000 nM Inh-172
T3 construct: the native wild-type CFTR construct without any deletion or mutation; expressed in transfected cells; host or cells: CHO cells, pcDNA plasmid
T3 sequence (P13569 whole entry): as the sequence (P13569 whole entry W1145L) above, with L1145W counted along it
Experimental: as §1, §2, §3

pig WT-CFTR = target: T4, pig WT-CFTR (Sus scrofa, UniProt Q6PQZ2)
T4 construct: expressed in transfected cells; host or cells: CHO cells, pcDNA plasmid
T4 sequence (Q6PQZ2 whole entry): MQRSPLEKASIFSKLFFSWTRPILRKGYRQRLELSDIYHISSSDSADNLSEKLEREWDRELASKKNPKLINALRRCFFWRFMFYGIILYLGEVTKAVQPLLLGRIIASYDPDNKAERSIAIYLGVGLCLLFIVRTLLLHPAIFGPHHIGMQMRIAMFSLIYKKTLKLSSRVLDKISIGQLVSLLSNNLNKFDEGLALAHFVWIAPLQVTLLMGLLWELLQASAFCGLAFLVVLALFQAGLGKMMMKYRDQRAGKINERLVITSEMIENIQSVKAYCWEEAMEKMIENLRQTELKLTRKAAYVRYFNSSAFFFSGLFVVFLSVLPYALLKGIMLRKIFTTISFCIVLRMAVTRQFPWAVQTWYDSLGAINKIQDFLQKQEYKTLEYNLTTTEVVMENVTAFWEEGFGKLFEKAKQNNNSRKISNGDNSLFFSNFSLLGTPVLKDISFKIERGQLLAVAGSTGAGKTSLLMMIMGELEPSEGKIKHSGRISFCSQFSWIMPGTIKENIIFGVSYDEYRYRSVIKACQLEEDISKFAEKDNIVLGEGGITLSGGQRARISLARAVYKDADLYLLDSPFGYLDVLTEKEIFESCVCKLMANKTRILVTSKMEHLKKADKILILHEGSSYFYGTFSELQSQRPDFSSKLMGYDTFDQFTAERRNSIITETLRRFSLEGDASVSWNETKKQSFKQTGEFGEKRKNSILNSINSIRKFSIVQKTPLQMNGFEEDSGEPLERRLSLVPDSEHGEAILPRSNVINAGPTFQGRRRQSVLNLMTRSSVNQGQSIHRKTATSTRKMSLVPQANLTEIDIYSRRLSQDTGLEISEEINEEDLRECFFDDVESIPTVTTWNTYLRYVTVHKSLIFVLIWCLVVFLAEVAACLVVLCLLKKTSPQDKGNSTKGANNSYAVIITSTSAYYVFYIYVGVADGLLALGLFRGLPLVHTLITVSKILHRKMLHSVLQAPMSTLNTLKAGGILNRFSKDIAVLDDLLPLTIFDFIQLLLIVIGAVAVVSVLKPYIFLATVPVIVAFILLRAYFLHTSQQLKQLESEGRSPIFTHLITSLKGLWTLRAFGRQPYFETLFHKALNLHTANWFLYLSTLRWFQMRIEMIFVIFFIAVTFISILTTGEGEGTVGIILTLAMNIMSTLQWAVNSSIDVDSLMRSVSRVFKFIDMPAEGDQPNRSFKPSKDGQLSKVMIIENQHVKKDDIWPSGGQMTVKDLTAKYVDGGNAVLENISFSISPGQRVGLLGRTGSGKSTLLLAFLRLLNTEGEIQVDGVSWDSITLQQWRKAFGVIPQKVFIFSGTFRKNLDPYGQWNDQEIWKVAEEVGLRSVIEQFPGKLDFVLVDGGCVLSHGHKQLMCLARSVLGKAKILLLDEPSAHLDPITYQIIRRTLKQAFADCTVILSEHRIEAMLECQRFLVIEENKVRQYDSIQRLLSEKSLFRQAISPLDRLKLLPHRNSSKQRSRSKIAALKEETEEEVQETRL
Experimental: as §1, §2, §3

[2] = 100 nM Inh-172, read-out: percent inhibition of current, Mean
[3] = 500 nM Inh-172, read-out: percent inhibition of current, Mean
[4] = 500 nM Inh-172, read-out: percent inhibition of current, individual cell
[5] = 1000 nM Inh-172, read-out: percent inhibition of current, Mean
[6] = 5000 nM Inh-172, read-out: percent inhibition of current, Mean
[7] = 5000 nM Inh-172, read-out: percent inhibition of current, individual cell
[8] = 10000 nM Inh-172, read-out: percent inhibition of current, Mean
[9] = 10000 nM Inh-172, read-out: percent inhibition of current, individual cell
[10] = read-out: percent inhibition of current, Mean
[11] = read-out: percent inhibition of current, individual cell

## O=C(O)c1ccc(/C=C2\SC(=S)N(c3cccc(C(F)(F)F)c3)C2=O)cc1 [Inh-172, CFTRinh-172]
W1145L-CFTR; 100 nM Inh-172
  percent inhibition of current, individual cell: 11
W1145L-CFTR; [2]
  inhibition at 0.1 µM: 16%
W1145L-CFTR; 100 nM Inh-172, read-out: percent inhibition of current, individual cell
  inhibition at 0.1 µM: 21%
W1145L-CFTR; 500 nM Inh-172
  percent inhibition of current, individual cell: 42 and 48
W1145L-CFTR; [3]
  inhibition at 0.5 µM: 44.3%
W1145L-CFTR; [4]
  inhibition at 0.5 µM: 43%
W1145L-CFTR; 1000 nM Inh-172
  percent inhibition of current, individual cell: 59 and 67
W1145L-CFTR; [5]
  inhibition at 1 µM: 62.3%
W1145L-CFTR; 1000 nM Inh-172, read-out: percent inhibition of current, individual cell
  inhibition at 1 µM: 61%
W1145L-CFTR; 5000 nM Inh-172
  percent inhibition of current, individual cell: 83 and 87 and 70
W1145L-CFTR; [6]
  inhibition at 5 µM: 81.3%
W1145L-CFTR; [7]
  inhibition at 5 µM: 85%
W1145L-CFTR; 10000 nM Inh-172
  percent inhibition of current, individual cell: 91 and 83
W1145L-CFTR; [8]
  inhibition at 10 µM: 89.5%
W1145L-CFTR; [9]
  inhibition at 10 µM: 92%
W1145L-CFTR; W1145L
  Hill Coefficient: 0.82 ± 0.07
  IC50: 640 ± 60 nM
[1]; [2]
  inhibition at 0.1 µM: 18.4%
[1]; [3]
  inhibition at 0.5 µM: 46.3%
[1]; [10]
  inhibition at 1 µM: 58.5%
  inhibition at 5 µM: 83.3%
  inhibition at 10 µM: 91%
[1]; [11]
  inhibition at 1 µM: 68%
  inhibition at 5 µM: 89%
  inhibition at 10 µM: 93%
[1]; h-pTM8-h
  Hill Coefficient: 0.80 ± 0.02
  IC50: 640 ± 20 nM
Human WT-CFTR; 25 nM Inh-172, read-out: percent inhibition of current, Mean
  inhibition at 0.025 µM: 27.2%
Human WT-CFTR; [10]
  inhibition at 0.05 µM: 33.5%
  inhibition at 0.1 µM: 60.2%
  inhibition at 1 µM: 91.4%
Human WT-CFTR; [11]
  inhibition at 0.05 µM: 28%
  inhibition at 0.1 µM: 53%
  inhibition at 1 µM: 88%
Human WT-CFTR; 0.5 µM Inh-172, read-out: WT-CFTR current inhibited
  inhibition at 0.5 µM: 80%
Human WT-CFTR; [3]
  inhibition at 0.5 µM: 81%
Human WT-CFTR; [4]
  inhibition at 0.5 µM: 75%
Human WT-CFTR; [9]
  inhibition at 10 µM: 89%
Human WT-CFTR; Human WT
  Hill Coefficient: 0.88 ± 0.09
Human WT-CFTR; Human WT + 200 nM VX-770
  Hill Coefficient: 1.07 ± 0.10
  IC50: 250 ± 20 nM
Human WT-CFTR; Human WT + 1 µM VX-770
  Hill Coefficient: 0.98 ± 0.02
  IC50: 420 ± 10 nM
Human WT-CFTR; Human WT, inside-out patch, -30 mV, 2 mM ATP, Hill fit
  IC50: 80 ± 10 nM
Human WT-CFTR; human CFTR, value of earlier manuscript version quoted in peer review file
  IC50: 83 nM
Pig WT-CFTR; 50 nM Inh-172
  percent inhibition of current, individual cell: 2.0 and 4.0 and 8.0 and 15.0 and 7.0
Pig WT-CFTR; 50 nM Inh-172, read-out: percent inhibition of current, Mean
  inhibition at 0.05 µM: 7.2%
Pig WT-CFTR; 100 nM Inh-172
  percent inhibition of current, individual cell: 2.0 and 18.0 and 5.0 and 13.0 and 6.0 and 7.0
Pig WT-CFTR; [2]
  inhibition at 0.1 µM: 8.1%
Pig WT-CFTR; 500 nM Inh-172
  percent inhibition of current, individual cell: 31.0 and 27.0 and 25.0 and 23.0
Pig WT-CFTR; [3]
  inhibition at 0.5 µM: 25.9%
Pig WT-CFTR; [4]
  inhibition at 0.5 µM: 22%
Pig WT-CFTR; 1000 nM Inh-172
  percent inhibition of current, individual cell: 33.0 and 38.0 and 40.0 and 21.0 and 41.0 and 44.0 and 39.0 and 36.0 and 29.0 and 42.0
Pig WT-CFTR; [5]
  inhibition at 1 µM: 36.3%
Pig WT-CFTR; 5000 nM Inh-172
  percent inhibition of current, individual cell: 62.0 and 70.0 and 59.0 and 77.0 and 72.0 and 79.0
Pig WT-CFTR; [6]
  inhibition at 5 µM: 68.1%
Pig WT-CFTR; [7]
  inhibition at 5 µM: 67%
Pig WT-CFTR; 10000 nM Inh-172
  percent inhibition of current, individual cell: 83.0 and 79.0 and 82.0 and 73.0 and 80.0 and 93.0
Pig WT-CFTR; [8]
  inhibition at 10 µM: 82.7%
Pig WT-CFTR; [9]
  inhibition at 10 µM: 89%
Pig WT-CFTR; Pig WT
  Hill Coefficient: 0.83 ± 0.04
  IC50: 1860 ± 120 nM
Pig WT-CFTR; cho cells inside-out patch
  IC50 of pig WT-CFTR higher than human WT-CFTR: ~ 20 fold
